Reference: ChEMBL document CHEMBL3352715, “Synthesis of new verapamil analogues and their evaluation in combination with rifampicin against Mycobacterium tuberculosis and molecular docking studies in the binding site of efflux protein Rv1258c” (2014)
Converted amounts (≈) assume the structure as drawn.

System: Mycobacterium tuberculosis
Experiment: Antimycobacterial activity against Mycobacterium tuberculosis H37Rv by MABA method
Assay type: functional

SMILES	MIC99 [µM]
COc1ccc(CCN(CCCC(C#N)(c2ccc(OC)c(OC)c2)C(C)C)Cc2ccccc2)cc1OC (stereo not drawn)	1000 (≈ 531 µg/mL)
CO[C@H]1/C=C/O[C@@]2(C)Oc3c(C)c(O)c4c(O)c(c(/C=N/N5CCN(C)CC5)c(O)c4c3C2=O)NC(=O)/C(C)=C\C=C\[C@H](C)[C@H](O)[C@@H](C)[C@@H](O)[C@@H](C)[C@H](OC(C)=O)[C@@H]1C [RIFAMPIN]	0.0083 (≈ 0.00683 µg/mL)
COc1ccc(CCNCCCC(C#N)(c2ccc(OC)c(OC)c2)C(C)C)cc1OC (stereo not drawn) [NORVERAPAMIL]	500 (≈ 220 µg/mL)
COc1ccc(CCN(C)CCCC(C#N)(c2ccc(OC)c(OC)c2)C2CCCC2)cc1OC (stereo not drawn)	125 (≈ 60.1 µg/mL)
COc1ccc(CCN(C)CCCC(C)(C#N)c2ccc(OC)c(OC)c2)cc1OC (stereo not drawn)	1000 (≈ 427 µg/mL)
COc1ccc(CCN(C)CCCC(C#N)c2ccc(OC)c(OC)c2)cc1OC (stereo not drawn)	1000 (≈ 413 µg/mL)
COc1ccc(CCN(C)CCCC(C#N)(c2ccc(OC)c(OC)c2)C2CCCCC2)cc1OC (stereo not drawn)	62.5 (≈ 30.9 µg/mL)
COc1ccc(C(C#N)(CCCN2CCN(c3ccccc3)CC2)C(C)C)cc1OC (stereo not drawn)	250 (≈ 105 µg/mL)
COc1ccc(C(C#N)(CCCN2CCC(O)(c3ccccc3)CC2)C(C)C)cc1OC (stereo not drawn)	250 (≈ 109 µg/mL)
COc1ccc(CN(C)CCCC(C#N)(c2ccc(OC)c(OC)c2)C(C)C)cc1OC (stereo not drawn)	1000 (≈ 441 µg/mL)
COc1ccc(C(C#N)(CCCN2CCN(c3ccccn3)CC2)C(C)C)cc1OC (stereo not drawn)	250 (≈ 106 µg/mL)
COc1ccc(C(C#N)(CCCN2CCN(c3ccccc3F)CC2)C(C)C)cc1OC (stereo not drawn)	62.5 (≈ 27.5 µg/mL)
COc1ccc(N(C)CCCC(C#N)(c2ccc(OC)c(OC)c2)C(C)C)cc1OC (stereo not drawn)	1000 (≈ 427 µg/mL)
COc1ccc(C(C#N)(CCCN2CCC(O)CC2)C(C)C)cc1OC (stereo not drawn)	1000 (≈ 360 µg/mL)
COc1ccc(CCN(C)CCCC(C#N)(c2ccc(OC)c(OC)c2)C(C)C)cc1OC (stereo not drawn) [VERAPAMIL]	500 (≈ 227 µg/mL)
CCCC(C#N)(CCCN(C)CCc1ccc(OC)c(OC)c1)c1ccc(OC)c(OC)c1 (stereo not drawn)	500 (≈ 227 µg/mL)
CCN(CCCC(C#N)(c1ccc(OC)c(OC)c1)C(C)C)CCc1ccc(OC)c(OC)c1 (stereo not drawn)	1000 (≈ 469 µg/mL)
COc1ccc(CCN(CCCC(C#N)(c2ccc(OC)c(OC)c2)C(C)C)C2CC2)cc1OC (stereo not drawn)	125 (≈ 60.1 µg/mL)
COc1ccc(C(C#N)(CCCN2CCCCC2)C(C)C)cc1OC (stereo not drawn)	1000 (≈ 344 µg/mL)
COc1ccc(C(C#N)(CCCN2CCOCC2)C(C)C)cc1OC (stereo not drawn)	1000 (≈ 346 µg/mL)
CCCN(CCCC(C#N)(c1ccc(OC)c(OC)c1)C(C)C)CCc1ccc(OC)c(OC)c1 (stereo not drawn)	500 (≈ 241 µg/mL)
CCC(C#N)(CCCN(C)CCc1ccc(OC)c(OC)c1)c1ccc(OC)c(OC)c1 (stereo not drawn)	1000 (≈ 441 µg/mL)
COc1ccc(C(C#N)(CCCN2CCC(N3CCCCC3)CC2)C(C)C)cc1OC (stereo not drawn)	500 (≈ 214 µg/mL)
